Source: US12065430B2, “Indazole compound or salt thereof” (TAIHO PHARMACEUTICAL CO., LTD., priority 2018, dated 2024)

What was measured:
[1] = system: NCI-H358 cells; assay: Growth inhibition activity on KRAS-G12C mutant cell line (NCI-H358) (in vitro, CellTiter-Glo2.0); type: cell-based; details: Homo sapiens, NCI-H358, 72 h, 3-day culture in the presence of the compound
Experimental: NCI-H358 cells (ATCC, Cat #: CRL-5807), which are a KRAS-G12C mutant human lung cancer cell line, were suspended in a 10% fetal bovine serum-containing RPMI1640 medium (manufactured by Fujifilm Wako Pure Chemical Corporation.). The cell suspension was seeded into each well of a 384-well flat-bottom microplate and cultured in an incubator containing 5% CO2 gas at 37° C. for 1 day. The test compound was dissolved in DMSO, and diluted with DMSO to give a concentration 500 times the final concentration. The solution of the test compound in DMSO was diluted with the medium used for suspending cells and added to each well of the cell-culture plate to give a DMSO final concentration of 0.2%, followed by culture in an incubator containing 5% CO2 gas at 37° C. for another 3 days. The cell count after 3-day culture in the presence of the compound was measured using CellTiter-Glo2.0 (manufactured by Promega Corporation) in accordance with the protocol recommended by Promega Corporation. The growth inhibition rate was calculated from the following equation, and the concentration of the test compound at which 50% inhibition was achieved (IC50 (nM)) was determined. […] Growth Inhibition Rate (%)=(C−T)/(C)×100 • T: the emission intensity in a well into which a test compound was added. • C: the emission intensity in a well into which a test compound was not added.

[2] = target: KRAS G12C (Homo sapiens (Human), UniProt P01116, G12C); assay: Inhibitory activity on KRAS G12C nucleotide (GDP-GTP) exchange reaction (Bodipy FL GDP, SOS1, GppNHp); type: biochemical; details: preincubation at 25° C. for 4 hours; SOS1 100 nM, GppNHp 1 μM, reaction 30 minutes
Experimental: The inhibitory activity of compounds on exchange reaction of GDP into GppNHp in Bodipy (trademark) FL-bound KRAS G12C was examined by fluorescence measurement using human recombinant KRAS G12C and SOS1 proteins.
For the preparation of KRAS G12C to which Bodipy FL GDP was bound, first, 50 μM^y KRAS G12C (amino acid region: 1-169) and 1 mM Bodipy FL GDP (Invitrogen, G22360) were incubated for 1 hour in a buffer (20 mM Tris-HCl (pH 7.5), 50 mM NaCl, 1 mM DTT) in ice in the presence of 2.5 mM EDTA. Thereafter, MgCl2 with a final concentration of 10 mM was added, and the mixture was incubated at room temperature for 30 minutes. The protein was allowed to pass through a NAP-5 column to remove free nucleotides and was used for compound evaluation.
For the measurement of the inhibitory activity of compounds on nucleotide exchange reaction, first, the compound of the present invention was diluted stepwise with dimethyl sulfoxide (DMSO). […] The change in fluorescence intensity of Bodipy FL (excitation wavelength: 485 nm, fluorescence wavelength: 520 nm) immediately after the start of reaction and after 30 minutes from the start of reaction was standardized. […]

[3] = target: G12C K-Ras4B (1-169) (Homo sapiens (Human), UniProt P01116, G12C); assay: Test of compounds on whether to bind to KRASG12C (LC-MS compound binding rate); details: final compound concentration of 2 μM, 1 μM protein, 25° C. for 2 hours
Method in brief: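 K-Ras4B (1-169) WT and G12C (1 μM each, mixed) in 1×TBS, 0.1 mM TCEP incubated with compound (final 2 μM) 2 h at 25° C; quenched with 0.2% formic acid. Intact-protein LC-MS (ESI+, deconvoluted); binding rate = adduct signal/(adduct + unbound signal), giving selectivity over WT.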

C=CC(=O)N1CC(NC(=O)c2c(Cl)nc(CNc3n[nH]c4cc(Cl)c(C(C)(C)C)cc34)n2[C@H]2CC[C@@H](OC)CC2)C1 [Example 112, N-(1-acryloylazetidin-3-yl)-2-(((5-(tert-butyl)-6-chloro-1H-indazol-3-yl)amino)methyl)-4-chloro-1-(4-methoxycyclohexyl)-1H-imidazole-5-carboxamide]
IC50 [1]: 52 nM | IC50 [2]: 5 nM | binding rate for G12C K-Ras4B (1-169) [3]: A (a binding rate of 80% or more is rated “A,”)
